Data published in BindingDB's records for doi:10.7270/Q2319T8T (The Scripps Research Institute Molecular Screening Center, 2007).
Where a name gives a salt, the structure may show the parent alone.

Target: Steroidogenic factor 1 (Homo sapiens, UniProt Q13285)
Assay: SF-1 inhibitor potency, dose response, cell-based, CHO-K1, Gal4-SF-1 LBD, luciferase luminescence (AID 600)
[1] = inactive by the depositor's call

Sequence of Steroidogenic factor 1 (Q13285 whole entry, the tested form may be a part): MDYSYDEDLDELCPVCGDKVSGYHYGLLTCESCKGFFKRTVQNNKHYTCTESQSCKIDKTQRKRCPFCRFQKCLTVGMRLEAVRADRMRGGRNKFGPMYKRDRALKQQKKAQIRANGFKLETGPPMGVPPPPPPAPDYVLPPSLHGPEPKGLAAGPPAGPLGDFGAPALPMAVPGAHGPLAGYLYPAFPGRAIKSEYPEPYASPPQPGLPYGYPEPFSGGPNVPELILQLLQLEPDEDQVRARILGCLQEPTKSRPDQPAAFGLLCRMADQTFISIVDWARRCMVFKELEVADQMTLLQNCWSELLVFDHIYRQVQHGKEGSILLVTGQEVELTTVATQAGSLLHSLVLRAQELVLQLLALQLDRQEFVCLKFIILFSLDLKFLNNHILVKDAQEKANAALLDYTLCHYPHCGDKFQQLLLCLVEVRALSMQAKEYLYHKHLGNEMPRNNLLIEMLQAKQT

SMILES	IC50 [1] [µM]	IC50 [µM]
COc1ccc(-c2cc(C(=O)O)c(C)o2)cc1OC [5-(3,4-dimethoxyphenyl)-2-methyl-3-furancarboxylic acid]	10.8	–
Cc1ccc(-c2nc(-c3ccccn3)no2)cc1Cl [5-(3-chloranyl-4-methyl-phenyl)-3-pyridin-2-yl-1,2,4-oxadiazole]	–	> 1.22
Cn1cc(C=Nn2cnc3scc(-c4ccc(Cl)cc4)c3c2=O)c2ccccc21 [5-(4-chlorophenyl)-3-[(1-methyl-3-indolyl)methylideneamino]-4-thieno[2,3-d]pyrimidinone]	–	9.07
Fc1ccc(-c2nnc(NC3=NCCCCC3)o2)cc1 [5-(4-fluorophenyl)-N-(3,4,5,6-tetrahydro-2H-azepin-7-yl)-1,3,4-oxadiazol-2-amine]	–	4.83
Cc1ccc(-c2cc(C(=O)N3CCCC3)no2)cc1 [5-(4-methylphenyl)-3-(1-pyrrolidinylcarbonyl)isoxazole]	–	> 3.67
Cc1ccc(-c2nc(-c3ccccn3)no2)cc1 [5-(4-methylphenyl)-3-(2-pyridinyl)-1,2,4-oxadiazole]	–	1.25
Cc1ccc(-c2nnc(Nc3ccccc3)o2)cc1 [5-(4-methylphenyl)-N-phenyl-1,3,4-oxadiazol-2-amine]	–	5.17
Oc1c(CN2CCOCC2)cc(COCc2ccccc2)c2cccnc12 [5-(benzoxymethyl)-7-(morpholinomethyl)quinolin-8-ol]	–	6.06
Oc1c(CN2CCCCC2)cc(COCc2ccccc2)c2cccnc12 [5-(benzoxymethyl)-7-(piperidinomethyl)quinolin-8-ol]	27.1	–
COCc1cc(CN2CCCC2)c(O)c2ncccc12 [5-(methoxymethyl)-7-(1-pyrrolidinylmethyl)-8-quinolinol]	–	4.13
Cc1cnc(C(=O)Nc2cccc3cccnc23)cn1 [5-Methyl-pyrazine-2-carboxylic acid quinolin-8-ylamide]	–	8.91
FC(F)(F)c1ccc(N2CCN(c3cc(-c4ccccc4)nc4ncnn34)CC2)nc1 [5-Phenyl-7-[4-(5-trifluoromethyl-pyridin-2-yl)-piperazin-1-yl]-[1,2,4]triazolo[1,5-a]pyrimidine]	21.2	–
CCOC(=O)c1oc2ccc(S(=O)(=O)Nc3ccc4c(c3)n(C)c(=O)n4C)cc2c1C [5-[(1,3-dimethyl-2-oxo-5-benzimidazolyl)sulfamoyl]-3-methyl-2-benzofurancarboxylic acid ethyl ester]	25.5	–
COc1cccc(CNC(=O)c2nnn(CC(=O)Nc3ccc(C)c(C)c3)c2N)c1 [5-amino-1-[2-(3,4-dimethylanilino)-2-keto-ethyl]-N-m-anisyl-triazole-4-carboxamide]	–	8.72
Oc1c(CN2CCCCC2)cc(Br)c2cccnc12 [5-bromanyl-7-(piperidin-1-ylmethyl)quinolin-8-ol]	–	> 3.67
O=S(=O)(NCc1ccncc1)c1ccc(Br)s1 [5-bromanyl-N-(pyridin-4-ylmethyl)thiophene-2-sulfonamide]	–	0.108
Oc1c(CN2CCN(c3ccccn3)CC2)cc(Cl)c2cccnc12 [5-chloranyl-7-[(4-pyridin-2-ylpiperazin-1-yl)methyl]quinolin-8-ol]	–	7.6
O=C(Nc1nc(-c2ccccn2)cs1)c1ccc(Cl)s1 [5-chloranyl-N-(4-pyridin-2-yl-1,3-thiazol-2-yl)thiophene-2-carboxamide]	–	> 3.67
Cc1ccc(S(=O)(=O)Nc2cccc3ncccc23)s1 [5-methyl-N-quinolin-5-ylthiophene-2-sulfonamide]	–	5.75
Cn1nc(C(C)(C)C)cc1C(=O)NCc1ccc(N2CCCC2=O)cc1 [5-tert-Butyl-2-methyl-2H-pyrazole-3-carboxylic acid 4-(2-oxo-pyrrolidin-1-yl)-benzylamide]	–	9.05
O=S1(=O)Nc2c(ccc3cccnc23)-c2ccccc21 [5H-quinolino[8,7-c][1,2]benzothiazine 6,6-dioxide]	–	5.46
C[C@@]1(CO)[C@H](O)CC[C@@]2(C)[C@H]1CC[C@H]1C[C@@H]3C[C@@]12CC[C@]3(O)CO [6,13-di(hydroxymethyl)-2,6-dimethyl-(1S,2S,5R,6R,7R,10S,12R,13R)-tetracyclo[10.3.1.01,10.02,7]hexadecane-5,13-diol (Aphidicolin)]	–	0.55
COC(=O)C1C(=CN2CCCc3ccccc32)NC(=O)NC1c1ccc(F)cc1 (stereo unspecified) [6-(3,4-dihydro-2H-quinolin-1-ylmethyl)-4-(4-fluorophenyl)-2-keto-3,4-dihydro-1H-pyrimidine-5-carboxylic acid methyl ester]	–	5.34
Cc1cc(C)n(-c2nc(NC(C)C)nc(NC(C)C)n2)n1 [6-(3,5-Dimethyl-pyrazol-1-yl)-N,N'-diisopropyl-[1,3,5]triazine-2,4-diamine]	–	8.33
C[S+]([O-])c1nc(-c2ccc(Br)cc2)cc(-c2ccccc2)c1C#N (stereo unspecified) [6-(4-bromophenyl)-2-(methylsulfinyl)-4-phenylnicotinonitrile]	–	5.24
CCOc1ccc(C2=Nn3c(nnc3-c3ccccc3OC)SC2)cc1 [6-(4-ethoxyphenyl)-3-(2-methoxyphenyl)-7H-[1,2,4]triazolo[3,4-b][1,3,4]thiadiazine]	–	> 0.407

SMILES	IC50 [1] [µM]	IC50 [µM]
CCc1ccc(-c2cn3nc(C)c(C)nc3n2)cc1 [6-(4-ethylphenyl)-2,3-dimethyl-imidazo[1,2-b][1,2,4]triazine]	–	3.21
CN1Cc2cc(C(=O)c3cc(Cl)cc(CSc4ncccn4)c3O)cnc2NC1=O [6-[5-chloranyl-2-oxidanyl-3-(pyrimidin-2-ylsulfanylmethyl)phenyl]carbonyl-3-methyl-1,4-dihydropyrido[2,3-d]pyrimidin-2-one]	12.6	–
CC(C)Cn1c(N)c(C(=O)CSc2ccc3c(c2)OCCO3)c(=O)n(C)c1=O [6-amino-5-[2-(2,3-dihydro-1,4-benzodioxin-6-ylsulfanyl)acetyl]-3-methyl-1-(2-methylpropyl)pyrimidine-2,4-dione]	13.4	–
Cc1ccc(Nc2cc(C)nn2-c2nc(C)cc(O)n2)cc1 [6-methyl-2-[3-methyl-5-(4-methylanilino)pyrazol-1-yl]-1H-pyrimidin-4-one]	–	4.32
Cc1ccc2nc(-c3ccccc3)cn2c1 [6-methyl-2-phenyl-imidazo[1,2-a]pyridine;hydrobromide]	–	1.96
Cn1c(-c2ccccc2)cc2c3no[n+]([O-])c3ccc21 [6-methyl-3-oxidanidyl-7-phenyl-pyrrolo[2,3-g][2,1,3]benzoxadiazol-3-ium]	15	–
c1csc(CCNc2ncnc3sc4c(c23)CCC4)c1 [7,8-dihydro-6H-cyclopenta[4,5]thieno[1,2-c]pyrimidin-1-yl-[2-(2-thienyl)ethyl]amine]	11.1	–
COc1ccc(Cl)c(Cn2c(NCc3ccco3)nc3c2c(=O)n(C)c(=O)n3C)c1 [7-(2-chloro-5-methoxy-benzyl)-8-(2-furfurylamino)-1,3-dimethyl-xanthine]	–	> 99
CCNc1nc2c(c(=O)n(C)c(=O)n2C)n1Cc1ccc(Cl)cc1 [7-(4-chlorobenzyl)-8-(ethylamino)-1,3-dimethyl-xanthine]	–	> 3.67
Cn1c(=O)c2c(nc(NCc3ccco3)n2C/C=C/c2ccccc2)n(C)c1=O [7-[(E)-cinnamyl]-8-(2-furfurylamino)-1,3-dimethyl-xanthine]	16.9	–
COc1cccc(Cn2c(NCc3ccco3)nc3c2c(=O)n(C)c(=O)n3C)c1 [8-(2-furanylmethylamino)-7-[(3-methoxyphenyl)methyl]-1,3-dimethylpurine-2,6-dione]	25.4	–
COc1cccc(N2CCN(c3ncnc4c3[nH]c3ccc(F)cc34)CC2C)c1 (stereo unspecified) [8-fluoranyl-4-[4-(3-methoxyphenyl)-3-methyl-piperazin-1-yl]-5H-pyrimido[5,4-b]indole]	–	2.07
COc1ccc2[nH]c3nc(SC(C)C)nnc3c2c1 [8-methoxy-3-propan-2-ylsulfanyl-5H-[1,2,4]triazino[5,6-b]indole]	–	9.03
Cc1nnc(SC(=O)N2c3ccccc3Sc3ccccc32)s1 [10-phenothiazinecarbothioic acid S-(5-methyl-1,3,4-thiadiazol-2-yl) ester]	–	5.38
O=C(OC1CCOC1=O)c1ccc(-c2nc3ccccc3s2)s1 (stereo unspecified) [(2-oxidanylideneoxolan-3-yl) 5-(1,3-benzothiazol-2-yl)thiophene-2-carboxylate]	–	5.75
O=C1C(=CNc2ccc3c(c2)OCO3)CCc2ccccc21 [(2E)-2-[(1,3-benzodioxol-5-ylamino)methylene]tetralin-1-one]	12.3	–
CCCCOc1ccc(OC(=O)c2cccnc2)cc1 [(4-butoxyphenyl) pyridine-3-carboxylate]	15.4	–
COc1cccc2sc(Nc3nc(-c4ccccn4)cs3)nc12 [(4-methoxy-1,3-benzothiazol-2-yl)-[4-(2-pyridyl)thiazol-2-yl]amine]	–	4.48
COc1ccccc1-c1nnc(Nc2nc3c(OC)cccc3s2)o1 [(4-methoxy-1,3-benzothiazol-2-yl)-[5-(2-methoxyphenyl)-1,3,4-oxadiazol-2-yl]amine]	–	6.52
COc1ccccc1-c1nnc2n1N=C(c1ccc(O)c(O)c1)CS2 [(4E)-4-[3-(2-methoxyphenyl)-5H-[1,2,4]triazolo[3,4-b][1,3,4]thiadiazin-6-ylidene]-2-oxidanyl-cyclohexa-2,5-dien-1-one]	–	10.4
CN=c1scc(C)n1N=Cc1ccc(O)cc1O [(4E)-4-[[(4-methyl-2-methylimino-1,3-thiazol-3-yl)amino]methylidene]-3-oxidanyl-cyclohexa-2,5-dien-1-one]	–	15.2
COc1ccc(CCNc2c(C)c(C)nc3ncnn23)cc1 [(5,6-Dimethyl-[1,2,4]triazolo[1,5-a]pyrimidin-7-yl)-[2-(4-methoxy-phenyl)-ethyl]-amine]	15.1	–
CCN1C(=O)/C(=C2/Sc3ccc(OC)cc3N2C)S/C1=N\c1cccc(O)c1 [(5Z)-3-ethyl-2-(3-hydroxyphenyl)imino-5-(5-methoxy-3-methyl-1,3-benzothiazol-2-ylidene)-1,3-thiazolidin-4-one]	–	7.66
CCc1c(C)nc2ncnn2c1NCCc1ccc(OC)cc1 [(6-Ethyl-5-methyl-[1,2,4]triazolo[1,5-a]pyrimidin-7-yl)-[2-(4-methoxy-phenyl)-ethyl]-amine]	–	> 11
CCc1ccc2oc(-c3cc(N)ccc3O)nc2c1 [(6E)-4-amino-6-(5-ethyl-3H-1,3-benzoxazol-2-ylidene)-1-cyclohexa-2,4-dienone]	–	> 3.67
